Like-named read-outs stand apart in the source and are kept apart here.
How the values were obtained:
EBOVpp = assay: microbe, parasite or virus in culture; assay type: cell-based, Zaire ebolavirus
in vitro = conditions: human
EBOV-GP = EBOV-GP (Zaire ebolavirus, UniProt Q05320); assay: biochemical; assay type: binding, Ebola virus
[1] = system: pCMV C-His (negative control); assay type: binding
[2] = system: infectious recombinant EBOV; conditions: read-out: IC50 against infectious recombinant EBOV infection; cited from earlier work
[3] = Zaire ebolavirus, A549, read-out: IC50 (M) against infection with EBOVpp
[4] = Zaire ebolavirus, A549, n = 3, read-out: EBOVpp IC50

EBOV-GP, sequence (Q05320 33-676 limits assumed): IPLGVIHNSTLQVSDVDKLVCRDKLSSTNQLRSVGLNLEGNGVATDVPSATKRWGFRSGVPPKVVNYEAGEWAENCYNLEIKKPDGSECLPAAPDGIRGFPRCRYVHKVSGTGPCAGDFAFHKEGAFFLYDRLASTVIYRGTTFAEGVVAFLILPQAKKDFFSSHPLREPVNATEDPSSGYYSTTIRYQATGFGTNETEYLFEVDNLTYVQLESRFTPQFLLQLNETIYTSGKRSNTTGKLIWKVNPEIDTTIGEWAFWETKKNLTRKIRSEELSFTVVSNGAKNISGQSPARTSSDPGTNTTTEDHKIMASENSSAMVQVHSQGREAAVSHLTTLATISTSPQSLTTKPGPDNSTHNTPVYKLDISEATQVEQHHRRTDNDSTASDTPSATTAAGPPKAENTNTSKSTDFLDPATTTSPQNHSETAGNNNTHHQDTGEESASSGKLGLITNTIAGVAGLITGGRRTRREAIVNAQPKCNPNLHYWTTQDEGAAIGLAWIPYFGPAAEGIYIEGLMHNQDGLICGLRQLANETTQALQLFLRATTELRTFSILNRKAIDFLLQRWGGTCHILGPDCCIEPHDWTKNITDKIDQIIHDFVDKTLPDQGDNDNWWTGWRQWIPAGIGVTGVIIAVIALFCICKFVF

SMILES	inhibition at 10 µM (EBOVpp; Zaire ebolavirus, A549, read-out: inhibitory effect against EBOVpp infection)	IC50 (EBOVpp; [3])	IC50 (EBOVpp; [4])	CC50 (in vitro)	Selectivity Index (SI) (EBOVpp)	Kd (EBOV-GP)	binding curve with the negative control [1]	IC50 [2]
O=C(O[C@@H]1Cc2c(O)cc(O)cc2O[C@@H]1c1ccc(O)c(O)c1)c1ccccc1 [13b, (2R,3R)-2-(3,4-Dihydroxyphenyl)-5,7-dihydroxychroman-3-yl benzoate]	> 60%							
Oc1cc(O)c2c(c1)O[C@H](c1ccc(O)c(O)c1)[C@@H](O)C2 [(+) Catechin (4), (+)-catechin]		3.6e-05 M	3.6e-05 M	> 34.5 µM				
Oc1cc(O)c2c(c1)O[C@H](c1ccc(O)c(O)c1)[C@H](O)C2 [(−) Epicatechin (5), (−)-epicatechin]		2.21e-05 M	2.21e-05 M	> 172 µM	>7.79			
O=C(O[C@@H]1Cc2c(O)cc(O)cc2O[C@@H]1c1ccc(O)c(O)c1)c1cc(O)c(O)c(O)c1 [ECG (9), epicatechin 3-O-gallate]		2.95e-06 M	2.95e-06 M	> 22.6 µM	>7.68			
O=C(O[C@@H]1Cc2c(O)cc(O)cc2O[C@@H]1c1cc(O)c(O)c(O)c1)c1cc(O)c(O)c(O)c1 [EGCG (8), (−)-epigallocatechin-3-O-gallate]		2.8e-06 M	2.8e-06 M	> 21.8 µM	>7.81			
Oc1cc(O)c2c(c1)O[C@H](c1cc(O)c(O)c(O)c1)[C@H](O)C2 [Epigallocatechin (11), epigallocatechin]		5.53e-06 M	5.53e-06 M	> 163 µM	>29.5			
Oc1cc(O)c2c(c1)O[C@H](c1cc(O)c(O)c(O)c1)[C@@H](O)C2 [Gallocatechin (10), gallocatechin]		1.24e-05 M	1.24e-05 M	> 163 µM	>13.1			
Oc1cc(O)c2c(c1)O[C@H](c1ccc(O)c(O)c1)[C@H](O)[C@H]2c1c(O)cc(O)c2c1O[C@H](c1ccc(O)c(O)c1)[C@@H](O)C2 [Procyanidin B1 (6), Procyanidin B1]		9.13e-07 M	9.5e-07 M	> 86.5 µM	>91.1			
Oc1cc(O)c2c(c1)O[C@H](c1ccc(O)c(O)c1)[C@H](O)[C@H]2c1c(O)cc(O)c2c1O[C@H](c1ccc(O)c(O)c1)[C@H](O)C2 [Procyanidin B2 (1), procyanidin B2]		8.29e-07 M	8.3e-07 M	> 86.5 µM	>104	13 µM	could not produce a binding curve	
Oc1cc(O)c2c(c1)O[C@H](c1ccc(O)c(O)c1)[C@@H](O)[C@@H]2c1c(O)cc(O)c2c1O[C@H](c1ccc(O)c(O)c1)[C@@H](O)C2 [Procyanidin B3 (7), Procyanidin B3]			1.52e-06 M	> 86.5 µM	>57.1			
Oc1cc(O)c2c(c1)O[C@H](c1ccc(O)c(O)c1)[C@H](O)[C@H]2c1c(O)cc(O)c2c1O[C@H](c1ccc(O)c(O)c1)[C@H](O)[C@H]2c1c(O)cc(O)c2c1O[C@H](c1ccc(O)c(O)c1)[C@H](O)C2 [Procyanidin C1 (2), procyanidin C1]			> 1.15e-05 M	> 11.5 µM				
Oc1cc(O)c2c(c1)OC(c1ccc(O)c(O)c1)C(O)C2c1c(O)cc(O)c2c1OC(c1ccc(O)c(O)c1)C(O)C2c1c(O)cc(O)c2c1OC(c1ccc(O)c(O)c1)C(O)C2c1c(O)cc(O)c2c1OC(c1ccc(O)c(O)c1)C(O)C2 (stereo not drawn) [Procyanidin tetramer (3), epicatechin-(4β→8)-epicatechin-(4β→8)-epicatechin-(4β→8)-epicatechin]			> 1.15e-05 M	> 11.5 µM				
CN(C)CCOc1ccc(/C(=C(/CCCl)c2ccccc2)c2ccccc2)cc1 [Toremifene, toremifene, reference compound]			1.7e-07 M	2.92 µM			could not produce a binding curve	
O=C(O)c1cc(O)c(O)c(O)c1 [gallic acid]								25.4 µM

Reference: PMC8910447 (International Journal of Molecular Sciences, 2022)
